{"source": "paper PMC11522085", "about": "“Studies on the mechanisms of action of MR33317” (Naunyn-Schmiedeberg's Archives of Pharmacology, 2024)", "biological_target": "T1, 5-HT4-receptor (5-HT4B membrane preparations) (Homo sapiens, UniProt Q13639)", "T1 construct": "gene HTR4; 5-HT4B membrane preparations (HTS110M, Millipore), recombinant", "T1 sequence (Q13639 whole entry)": "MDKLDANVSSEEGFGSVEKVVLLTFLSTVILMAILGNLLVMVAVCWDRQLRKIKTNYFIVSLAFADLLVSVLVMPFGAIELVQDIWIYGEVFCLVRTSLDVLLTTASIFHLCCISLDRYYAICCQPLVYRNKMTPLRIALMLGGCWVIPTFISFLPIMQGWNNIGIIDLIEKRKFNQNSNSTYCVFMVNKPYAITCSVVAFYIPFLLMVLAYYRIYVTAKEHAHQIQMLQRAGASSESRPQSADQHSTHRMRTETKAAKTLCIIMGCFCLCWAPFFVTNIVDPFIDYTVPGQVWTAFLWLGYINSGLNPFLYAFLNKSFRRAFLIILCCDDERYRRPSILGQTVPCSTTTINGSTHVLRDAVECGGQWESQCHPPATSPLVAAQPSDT", "test": "radioligand-type competition binding on recombinant 5-HT4B membranes (filtration); partial agonist in cAMP assay", "excerpt": "radioligand-type competition binding on recombinant 5-HT4B membranes (filtration); partial agonist in cAMP assay on 5-HT4-receptor (5-HT4B membrane preparations) | MR33317 bound with high affinity to recombinant 5-HT4-receptor.", "data": [{"smiles": "COc1cc(N)c(Cl)cc1C(=O)CCC1CCN(Cc2cccc(N)c2)CC1", "note": "[MR33317]", "values": [{"measurement": "Ki", "value": "42.5 ± 2.6", "unit": "nM"}]}]}
